From patent US8835458B2 (Hanmi Science Co., Ltd, priority 2010, dated 2014)
Where a name gives a salt, the structure may show the parent alone.

Tests used:
[1] = tested on: MDA-MB-231 breast cancer cell lines; assay: Evaluation of inhibition on cell growth (MTS); format: cell-based; settings: Homo sapiens, MDA-MB-231, 120 hours
Description: (§1) MDA-MB-231 breast cancer cell lines (ATCC #HTB-26) and BxPC-3 pancreas cancer cell lines (ATCC #CRL 1687), which have been reported to express XIAP, were obtained from ATCC (American type culture collection; Rockville, Md.). MDA-MB-231 cell lines were incubated in L-15 medium supplemented with 10% FBS and 1% penicillin/streptomycin (Gibco BRL) at a T-75 cm^2 growth flask. In addition, BxPC-3 cell lines were incubated in RPMI medium supplemented with 10% FBS and 1% penicillin/streptomycin. For experiments of toxicity to normal cells, fibroblasts Hs27 (ATCC #CRL 1634) and Balb/c3t3 (ATCC #CCL 163) were used. The various cell lines were transferred into 96-well plates at a density of 3,000˜5,000 cells/100 μL, and cultured for 24 hours under conditions of 37° C., 5% CO2, 95% air, and 100% relative humidity (MDA-MB-231 cells were cultured under atmospheric conditions). The cells were treated with 10 μM˜0.1 nM of test compounds, and MDA-MB-231, BxPC-3, and normal cell lines were cultured for 120, 96, and 72 hours, respectively.
(§2) Cell viabilities of MDA-MB-231 cell lines were measured at an absorbance of 490 nm using CellTiter 96™ AQueous One Solution Cell proliferation Assay (MTS, Promega), and cell viabilities of BxPC-3 and normal cell lines were measured by fixing cells with 10% TCA (trichloroacetic acid), staining with SRB (sulforhodamine B), and measuring at 540 nm. From the values, GI50 values in which test compounds reduce the growth of cancer cells by 50% were calculated. The growth rates of cancer cells were calculated from following Equation 1 or 2. [(Ti−Tz)/(C−Tz)]×100 (for Ti>=Tz) [Equation 1] [(Ti−Tz)/Tz]×100 (for Ti<Tz) [Equation 2] In Equations 1 and 2, Tz refers to a density of untreated cells, which is an absorbance in 0% cell growth groups. C refers to a density of cells cultured by adding only medium, and Ti refers to a density of cells treated with test compounds.
(§3) GI50 value is the concentration of a test compound when the value of Equation 1 is 50, which indicates the concentration of test compound required to inhibit the cancer cells by 50%. On each measurement, test compounds were compared with a control.
(§4) The activity value of each compound (GI50 value) was shown in Table 5, and an IAP antagonist was used as a control.
(§5) In the activity measurement on MDA-MB-231 breast cancer cell lines, the values were represented as “***” for 100 nM or less, “**” for over 100 nM to below 1,000 nM, and “*” for 1,000 nM or more. In the measurement on normal cell lines, Balb/C and Hs27, the values were represented as “+++” for 10,000 nM or more, “++” for over 5,000 nM to below 10,000 nM, and “+” for 5,000 nM or less.

[2] = Toxicity to normal cells (SRB); format: cell-based, human; settings: human, Hs27 fibroblasts (normal cell line)
Description: as §1, §2, §3, §4, §5

CN[C@@H](C)C(=O)N[C@H](C(=O)N1CCC[C@H]1C(=O)Nc1cc2c(Nc3ccc(N4CCOCC4)c(Cl)c3)ncnc2cc1OC)C(C)(C)C [Example 95, (S)—N-(4-((3-chloro-4-morpholinophenyl)amino)-7-methoxyquinazolin-6-yl)-1-((S)-3,3-dimethyl-2-((S)-2-(methylamino)propanamido)butanoyl)pyrrolidine-2-carboxamide]
GI50 [1]: ≤ 100 nM
GI50 at 72 h [2]: > 10000 nM

CN[C@@H](C)C(=O)N[C@H](C(=O)N1CCC[C@H]1C(=O)Nc1cc2c(Nc3ccc(N4CCCCC4)c(Cl)c3)ncnc2cc1OC)C(C)(C)C [Example 96, (S)—N-(4-((3-chloro-4-(piperidin-1-yl)phenyl)amino)-7-methoxyquinazolin-6-yl)-1-((S)-3,3-dimethyl-2-((S)-2-(methylamino)propanamido)butanoyl)pyrrolidine-2-carboxamide hydrochloride]
GI50 [1]: ≤ 100 nM
GI50 at 72 h [2]: > 10000 nM

CN[C@@H](C)C(=O)N[C@H](C(=O)N1CCC[C@H]1C(=O)Nc1cc2c(Nc3ccc(N4CCN(C(C)C)CC4)c(Cl)c3)ncnc2cc1OC)C(C)(C)C [Example 97, (S)—N-(4-((3-chloro-4-(4-isopropylpiperazin-1-yl)phenyl)amino)-7-methoxyquinazolin-6-yl)-1-((S)-3,3-dimethyl-2-((S)-2-(methylamino)propanamido)butanoyl)pyrrolidine-2-carboxamide hydrochloride]
GI50 [1]: ≤ 100 nM
GI50 at 72 h [2]: > 10000 nM

CCCN1CCN(c2ccc(Nc3ncnc4cc(OC)c(NC(=O)[C@@H]5CCCN5C(=O)[C@@H](NC(=O)[C@H](C)NC)C(C)(C)C)cc34)cc2Cl)CC1 [Example 98, (S)—N-(4-((3-chloro-4-(4-propyl-1-yl)phenyl)amino)-7-methoxyquinazolin-6-yl)-1-((S)-3,3-dimethyl-2-((S)-2-(methylamino)propanamido)butanoyl)pyrrolidine-2-carboxamide hydrochloride]
GI50 [1]: ≤ 100 nM
GI50 at 72 h [2]: > 10000 nM

CCN(CC)c1ccc(Nc2ncnc3cc(OC)c(NC(=O)[C@@H]4CCCN4C(=O)[C@@H](NC(=O)[C@H](C)NC)C(C)(C)C)cc23)cc1Cl [Example 99, (S)—N-(4-((3-chloro-4-(diethylamino)phenyl)amino)-7-methoxyquinazolin-6-yl)-1-((S)-3,3-dimethyl-2-((S)-2-(methylamino)propanamido)butanoyl)pyrrolidine-2-carboxamide hydrochloride]
GI50 [1]: ≤ 100 nM
GI50 at 72 h [2]: > 10000 nM

CN[C@@H](C)C(=O)N[C@H](C(=O)N1CCC[C@H]1C(=O)Nc1cc2c(Nc3ccc(N4CCN(CC5CC5)CC4)c(F)c3)ncnc2cc1OC)C(C)(C)C [Example 100, hydrochloride]
GI50 [1]: ≤ 100 nM
GI50 at 72 h [2]: > 10000 nM

CN[C@@H](C)C(=O)N[C@H](C(=O)N1CCC[C@H]1C(=O)Nc1cc2c(Nc3cc(Cl)c(OCc4ccccn4)c(Cl)c3)ncnc2cc1OC)C(C)(C)C [Example 101, (S)—N-(4-((3,5-dichloro-4-(pyridin-2-ylmethoxy)phenyl)amino)-7-methoxyquinazolin-6-yl)-1-((S)-3,3-dimethyl-2-((S)-2-(methylamino)propanamido)butanoyl)pyrrolidine-2-carboxamide hydrochloride]
GI50 [1]: ≤ 100 nM
GI50 at 72 h [2]: > 10000 nM

CN[C@@H](C)C(=O)N[C@H](C(=O)N1CCC[C@H]1C(=O)Nc1cc2c(Nc3ccc(OCc4ccccn4)c(Cl)c3)ncnc2cc1OC)C(C)(C)C [Example 102, (S)—N-(4-((3-chloro-4-(pyridin-2-ylmethoxy)phenyl)amino)-7-methoxyquinazolin-6-yl)-1-((S)-3,3-dimethyl-2-((S)-2-(methylamino)propanamido)butanoyl)pyrrolidine-2-carboxamide hydrochloride]
GI50 [1]: ≤ 100 nM
GI50 at 72 h [2]: > 10000 nM

CN[C@@H](C)C(=O)N[C@H](C(=O)N1CCC[C@H]1C(=O)Nc1cc2c(Nc3ccc(N4CCC(N5CCCCC5)CC4)cc3)ncnc2cc1OC)C(C)(C)C [Example 103, (S)—N-(4-((4-([1,4′-bipiperidine]-1′-yl)phenyl)amino)-7-methoxyquinazolin-6-yl)-1-((S)-3,3-dimethyl-2-((S)-2-(methylamino)propanamido)butanoyl)pyrrolidine-2-carboxamide hydrochloride]
GI50 [1]: ≤ 100 nM
GI50 at 72 h [2]: > 10000 nM

CN[C@@H](C)C(=O)N[C@H](C(=O)N1CCC[C@H]1C(=O)Nc1cc2c(Nc3ccc(CN4CCCCC4)cc3)ncnc2cc1OC)C(C)(C)C [Example 104, (S)-1-((S)-3,3-dimethyl-2-((S)-2-(methylamino)propanamido)butanoyl)-N-(7-methoxy-4-((4-(piperidin-1-ylmethyl)phenyl)amino)quinazolin-6-yl)pyrrolidine-2-carboxamide hydrochloride]
GI50 [1]: ≤ 100 nM
GI50 at 72 h [2]: > 10000 nM

CN[C@@H](C)C(=O)N[C@H](C(=O)N1CCC[C@H]1C(=O)Nc1cc2c(Nc3ccc(N4CCC(N5CCN(C)CC5)CC4)cc3)ncnc2cc1OC)C(C)(C)C [Example 105, (S)-1-((S)-3,3-dimethyl-2-((S)-2-(methylamino)propanamido)butanoyl)-N-(7-methoxy-4-((4-(4-(4-methylpiperazin-1-yl)piperidin-1-yl)phenyl)amino)quinazolin-6-yl)pyrrolidine-2-carboxamide hydrochloride]
GI50 [1]: ≤ 100 nM
GI50 at 72 h [2]: > 10000 nM

CN[C@@H](C)C(=O)N[C@H](C(=O)N1CCC[C@H]1C(=O)Nc1cc2c(Nc3ccc(C4CCN(C)CC4)cc3)ncnc2cc1OC)C(C)(C)C [Example 106, (S)-1-((S)-3,3-dimethyl-2-((S)-2-(methylamino)propanamido)butanoyl)-N-(7-methoxy-4-((4-(1-methylpiperidin-4-yl)phenyl)amino)quinazolin-6-yl)pyrrolidine-2-carboxamide hydrochloride]
GI50 [1]: ≤ 100 nM
GI50 at 72 h [2]: > 10000 nM

CN[C@@H](C)C(=O)N[C@H](C(=O)N1CCC[C@H]1C(=O)Nc1cc2c(NC3CCC(N4CCC(C)CC4)CC3)ncnc2cc1OC)C(C)(C)C (stereo partly drawn) [Example 107, (S)-1-((S)-3,3-dimethyl-2-((S)-2-(methylamino)propanamido)butanoyl)-N-(7-methoxy-4-((4-(4-methylpiperidin-1-yl)cyclohexyl)amino)quinazolin-6-yl)pyrrolidine-2-carboxamide hydrochloride]
GI50 [1]: 100 to 1000 nM
GI50 at 72 h [2]: > 10000 nM

CN[C@@H](C)C(=O)N[C@H](C(=O)N1CCC[C@H]1C(=O)Nc1cc2c(Nc3ccc(S(=O)(=O)N4CCN(C)CC4)cc3)ncnc2cc1OC)C(C)(C)C [Example 108, (S)-1-((S)-3,3-dimethyl-2-((S)-2-(methylamino)propanamido)butanoyl)-N-(7-methoxy-4-((4-((4-methylpiperazin-1-yl)sulfonyl)phenyl)amino)quinazolin-6-yl)pyrrolidine-2-carboxamide hydrochloride]
GI50 [1]: ≤ 100 nM
GI50 at 72 h [2]: > 10000 nM

CN[C@@H](C)C(=O)N[C@H](C(=O)N1CCC[C@H]1C(=O)Nc1cc2c(Nc3ccc(C4CCCN(C)C4)cc3)ncnc2cc1OC)C(C)(C)C (stereo partly drawn) [Example 109, (2S)-1-((S)-3,3-dimethyl-2-((S)-2-(methylamino)propanamido)butanoyl)-N-(7-methoxy-4-((4-(1-methylpiperidin-3-yl)phenyl)amino)quinazolin-6-yl)pyrrolidine-2-carboxamide hydrochloride]
GI50 [1]: ≤ 100 nM
GI50 at 72 h [2]: > 10000 nM

CN[C@@H](C)C(=O)N[C@H](C(=O)N1CCC[C@H]1C(=O)Nc1cc2c(Nc3ccc(N4CCN(C5CCN(C)CC5)CC4)cc3)ncnc2cc1OC)C(C)(C)C [Example 110, hydrochloride]
GI50 [1]: ≤ 100 nM
GI50 at 72 h [2]: > 10000 nM

CN[C@@H](C)C(=O)N[C@H](C(=O)N1CCC[C@H]1C(=O)Nc1cc2c(Nc3ccc(Cn4ccnc4)cc3)ncnc2cc1OC)C(C)(C)C [Example 111, (S)—N-(4-((4-((1H-imidazol-1-yl)methyl)phenyl)amino)-7-methoxyquinazolin-6-yl)-1-((S)-3,3-dimethyl-2-((S)-2-(methylamino)propanamido)butanoyl)pyrrolidine-2-carboxamide hydrochloride]
GI50 [1]: 100 to 1000 nM
GI50 at 72 h [2]: > 10000 nM
